Source: ChEMBL document CHEMBL6083253, “Chemical synthesis and enzymatic late-stage diversification of novel pantothenate analogues with antiplasmodial activity” (Eur J Med Chem, 2024)
Active and inactive are the calls of the source. No cut-off for these calls is given here.

Key:
Plasmodium falciparum [1] = test: Antiplasmodial activity against Plasmodium falciparum infected in human Erythrocyte measured after 96 hrs in presence of chloroquine and 1 uM of pantothenate by SYBR green fluorescence dye based microplate reader analysis; type: functional, organism-based
Plasmodium falciparum [2] = test: Antiplasmodial activity against intraerythrocytic stage of Plasmodium falciparum 3D7 assessed as inhibition of parasite proliferation in presence of pantetheinase; type: functional, organism-based
Priestia megaterium [3] = test: Substrate activity at full length C-terminal his-tagged Bacillus megaterium […] BM3 A82F/F87V double mutant preincubated for 5 min in presence of NADP+ followed by compound addition by LC-MS analysis
Priestia megaterium [4] = test: Substrate activity at full length C-terminal his-tagged wild type Bacillus megaterium […] BM3 preincubated for 5 min in presence of NADP+ followed by compound addition by LC-MS analysis
Priestia megaterium [5] = test: Substrate activity at wild type full length C-terminal his-tagged Bacillus megaterium […] BM3 assessed as conversion rate by UV-HPLC analysis
Plasmodium falciparum [6] = test: Antiplasmodial activity against Plasmodium falciparum infected in human Erythrocyte measured after 96 hrs in presence of chloroquine and 100 uM of pantothenate by SYBR green fluorescence dye based microplate reader analysis; type: functional, organism-based
[7] = Cytotoxicity against HFF cells assessed as inhibition of cell proliferation at 200 uM incubated for 96 hrs in presence of 16.8 uM of pantothenate by IncuCyte live-cell analysis; type: toxicity, cell-based; settings: human
[8] = Cytotoxicity against HFF cells assessed as inhibition of cell proliferation at 10 uM incubated for 96 hrs by IncuCyte live-cell analysis; type: toxicity, cell-based; settings: human
Priestia megaterium [9] = test: Substrate activity at full length C-terminal his-tagged Bacillus megaterium […] BM3 A82F/F87V double mutant assessed as conversion rate by UV-HPLC analysis
[10] = Binding affinity to full length C-terminal his-tagged Bacillus megaterium […] BM3 A82F/F87V double mutant assessed as dissociation constant by Michaelis-Menten equation based analysis; parameters: species or system Priestia megaterium
Plasmodium falciparum [11] = test: Antiplasmodial activity against intraerythrocytic stage of Plasmodium falciparum 3D7 assessed as inhibition of parasite proliferation; type: functional, organism-based
[12] = Binding affinity to full length C-terminal his-tagged Bacillus megaterium […] BM3 A82F/F87V double mutant assessed as dissociation constant by Morrison equation based analysis; parameters: species or system Priestia megaterium

| Structure (SMILES) | IC50 (Plasmodium falciparum [1]) [µM] | Activity (Priestia megaterium [3]) | Activity (Priestia megaterium [4]) | also measured |
| --- | --- | --- | --- | --- |
| CCCCCc1cc(CNC(=O)[C@H](O)C(C)(C)CO)no1 |  |  |  | IC50 (Plasmodium falciparum [2]): 160 nM |
| CC(C)C(O)Cc1cc(CNC(=O)[C@H](O)C(C)(C)CO)no1 (some centres undefined) | 7.3 |  |  |  |
| CCCCc1cc(CNC(=O)[C@H](O)C(C)(C)CO)no1 |  |  |  | IC50 (Plasmodium falciparum [2]): 72 nM |
| C[C@@H]1C[C@@H]([C@H](O)CC2CC(=O)NC(=O)C2)C(=O)[C@@H](C)C1 [CYCLOHEXIMIDE] |  |  |  | inhibition at 96 h, 10 µM [8]: 100% |
| CCCCCCn1cc(CNC(=O)[C@H](O)C(C)(C)CO)nn1 |  |  |  | IC50 (Plasmodium falciparum [2]): 55 nM |
| CCCCCn1cc(CNC(=O)[C@H](O)C(C)(C)CO)nn1 |  |  |  | IC50 (Plasmodium falciparum [2]): 56 nM |
| CC(C)(CO)[C@@H](O)C(=O)NCc1cn(CCCc2ccccc2)nn1 | 16 | Active | Active | Kd [10]: 10 µM; Activity (Priestia megaterium [9]): 32.3%; IC50 (Plasmodium falciparum [11]): 25 µM |
| CC(C)(C)Cc1cc(CNC(=O)[C@H](O)C(C)(C)CO)no1 | 4 | inactive | Active | IC50 (Plasmodium falciparum [6]): > 50 µM; inhibition at 96 h, 200 µM [7]: 102% |
| CC(C)C(O)c1cc(CNC(=O)[C@H](O)C(C)(C)CO)no1 (some centres undefined) | 80 |  |  |  |
| CC(C)(CO)[C@@H](O)C(=O)NCc1cn(CC(O)Cc2ccccc2)nn1 (some centres undefined) | > 200 |  |  |  |

Now from value to molecule, other results behind:

| IC50 (Plasmodium falciparum [1]) [µM] | Activity (Priestia megaterium [3]) | Activity (Priestia megaterium [4]) | Structure (SMILES) | also measured |
| --- | --- | --- | --- | --- |
| 29 |  |  | CC(C)(O)CCc1cc(CNC(=O)[C@H](O)C(C)(C)CO)no1 |  |
| 0.22 | Active | Active | CC(C)CCc1cc(CNC(=O)[C@H](O)C(C)(C)CO)no1 | Activity (Priestia megaterium [5]): 85.6%; IC50 (Plasmodium falciparum [6]): > 3.1 µM; inhibition at 96 h, 200 µM [7]: 100% |
|  | inactive | inactive | CCCCCNC(=O)CCNC(=O)[C@H](O)C(C)(C)CO |  |
|  | inactive | inactive | CCCCCc1nnc(CNC(=O)[C@H](O)C(C)(C)CO)o1 |  |
|  | Active | Active | CCCCCc1noc(CNC(=O)[C@H](O)C(C)(C)CO)n1 | Activity (Priestia megaterium [9]): 32.9% |
| 3.9 |  |  | CC(C)C(O)CCc1cc(CNC(=O)[C@H](O)C(C)(C)CO)no1 (some centres undefined) | IC50 (Plasmodium falciparum [6]): > 50 µM; inhibition at 96 h, 200 µM [7]: 101% |
| 153 |  |  | CC[S+]([O-])Cc1cc(CNC(=O)[C@H](O)C(C)(C)CO)no1 (some centres undefined) |  |
| 55 |  |  | CC(C)(O)CCCc1cc(CNC(=O)[C@H](O)C(C)(C)CO)no1 |  |
| 0.13 | Active | Active | CCSCc1cc(CNC(=O)[C@H](O)C(C)(C)CO)no1 | Kd [12]: 900 nM; Activity (Priestia megaterium [9]): Active; IC50 (Plasmodium falciparum [6]): > 1.6 µM; inhibition at 96 h, 200 µM [7]: 100% |
| 10 | inactive | inactive | CCC(C)c1cc(CNC(=O)[C@H](O)C(C)(C)CO)no1 (some centres undefined) |  |
| 0.47 | Active | Active | CC(C)Cc1cc(CNC(=O)[C@H](O)C(C)(C)CO)no1 | Kd [12]: 3000 nM; Activity (Priestia megaterium [9]): 37.5%; IC50 (Plasmodium falciparum [6]): > 6.3 µM; inhibition at 96 h, 200 µM [7]: 100% |
| 0.35 | Active | Active | CC(C)CCCc1cc(CNC(=O)[C@H](O)C(C)(C)CO)no1 | Kd [12]: 3700 nM; Activity (Priestia megaterium [9]): Active; IC50 (Plasmodium falciparum [6]): > 3.1 µM; inhibition at 96 h, 200 µM [7]: 102% |
|  | inactive | inactive | CCCCCc1nnc(CNC(=O)[C@H](O)C(C)(C)CO)[nH]1 |  |
